In ChEMBL document CHEMBL3507680, “University of Dundee, Gates Library screen for HepG2 cell viability”:

assay: Human HepG2 cell viability assay in 384 well format; type: toxicity, cell-based; set-up: dose 125 nL, time 70.5 hour; concentration not given beside the values; conditions: HepG2 cells, read-out: Inhibition

Point of comparison: O=C(O)CC[C@@H]1CN(c2ncnc3[nH]ccc23)CC[C@@H]1N1CCOCC1, cytotoxicity at 70.5 h -4.6%. Against it:
- Cn1cccc1C(=O)N1C[C@@H](OCc2cccnc2)[C@H]2OCCC[C@H]21 — higher, 8.24%
- c1cc(CN2CCOCC3(CCN(C4CCOCC4)C3)C2)ccn1 (stereo not drawn) — higher, 6.88%
- O=C(NCC1Cn2nnc(-c3cccc(F)c3)c2CO1)c1ccc[nH]1 (stereo not drawn) — higher, 4.99%
- c1cnc(OCc2nnc3n2CCN(CC2CCOCC2)C3)nc1 — lower, -7.25%
- Cc1nccc([C@H]2C[C@@H]3CCN(Cc4ccco4)C[C@H]3O2)n1 — lower, -10.9%
- CCOCC1CC2(CCN(C(=O)c3ncccn3)CC2)CO1 (stereo not drawn) — lower, -10.5%
- CN(C)Cc1nnc2n1CCN(Cc1ccccn1)CC2 — lower, -10.5%
- CC(C)NC(=O)N1CCC2(CC(=O)N(c3cccc(F)c3)C2)C1 (stereo not drawn) — lower, -12.8%
- CO[C@H]1CN(C(=O)c2ccnnc2)[C@@H]2COC[C@H]12 — higher, 36.6%
- Cc1ccc(S(=O)(=O)N2CCC3(CC(C(=O)NCC(C)C)=NO3)C2)cc1 (stereo not drawn) — higher, 7.95%
- Cc1nccc([C@@H]2C[C@@H]3CCN(Cc4ccco4)C[C@H]3O2)n1 — higher, 12.2%
- O=C(c1ccnnc1)N1C[C@H](OCc2ccccn2)[C@H]2COC[C@H]21 — higher, 4.62%
- O=C(c1ccncn1)N1C[C@@H]2CN(Cc3cccnc3)CCO[C@@H]2C1 — lower, -12.7%
- O=C(c1ccccn1)N1CCC2(CC1)COC(COc1cccnc1)C2 (stereo not drawn) — lower, -7.52%
- CC(C)c1nccc([C@@H]2C[C@@H]3CCN(Cc4ccco4)C[C@H]3O2)n1 — higher, 38.3%
- Fc1cnc(N2CCC3(CCCN(c4nncs4)C3)C2)nc1 (stereo not drawn) — lower, -6.18%
- NC(=O)N1CCCC(C(=O)N2CCc3c(nc(CC4CC4)[nH]c3=O)C2)C1 (stereo not drawn) — lower, -6.32%
- Cc1nc(CNC(=O)CC2C(=O)NCCN2Cc2ccccc2C)n[nH]1 (stereo not drawn) — higher, -0.629%
- CCCc1cc(C(=O)N(Cc2cccnc2)Cc2cccnc2)[nH]n1 — lower, -7.25%
- O=C(c1ccccn1)N1CCC(c2nccn2Cc2ccncc2)CC1 — lower, -14.4%
- Cc1nc(CC(=O)N2CCCC2c2nc(C(C)C)no2)cs1 (stereo not drawn) — lower, -6.42%
- CCN(C)CC(=O)N1CCN(Cc2ccccc2)[C@@H]2CS(=O)(=O)C[C@@H]21 — higher, 2.14%
- OC[C@H]1CN(C2Cc3ccccc3C2)C[C@H]1CN1CCC(O)CC1 — lower, -7.74%
- c1csc(-c2noc(COCC3CCCO3)n2)c1 (stereo not drawn) — higher, 1.87%
- Cc1c(CNCCCOc2cccnc2)c2ccccc2n1CC(N)=O — higher, 5.45%
- COc1ccc(OCC2CCCN(c3nc(CO)cs3)C2)cc1 (stereo not drawn) — lower, -9.63%
- CN(Cc1ccc(CCC(C)(C)O)cc1)Cc1cccnc1 — lower, -11.5%
- NC(=O)CN1CCC(C(=O)NCCc2nc(-c3ccccc3)cs2)CC1 — higher, -3.75%
- Cc1nnsc1CN1CC[C@@](O)(C2CCC2)[C@H](C)C1 — lower, -7.08%
- CCn1nc(CC(C)C)cc1C(=O)N1CC(N2CCCCC2C)C1 (stereo not drawn) — higher, -2.38%
- COc1cccc2c1OCC(CNC(=O)Cc1csc(C(C)=O)c1)C2 (stereo not drawn) — higher, 14.4%
- Cc1cc(C)c(C(=O)N2CCCC(C(=O)CCc3ccccc3)C2)cn1 (stereo not drawn) — higher, -3.58%
- N[C@H]1CN(C(=O)c2ccc(Cl)cc2O)C[C@@H]1C1CC1 — higher, -3.15%
- O=C1Nc2ccccc2NC12CCN(Cc1nnc(C3CC3)o1)CC2 — lower, -5.39%
- COc1cccc(C(=O)N2C[C@@H](CN(C)CCO)[C@@H](CO)C2)c1C — higher, 23.8%
- Cc1cc(C)n(CC2(CNC(=O)C(c3ccc(F)cc3)N(C)C)CC2)n1 (stereo not drawn) — higher, -1.88%
- Cc1cc(NC(C)Cc2cccnc2)n2nccc2n1 (stereo not drawn) — lower, -12%
- CN(CCc1ccccc1)Cc1cc(C(=O)N2CCSCC2)no1 — higher, -3.85%
- CCn1nccc1C(=O)N1CCCCC1CCc1ccc(O)cc1 (stereo not drawn) — higher, 11%
- CCc1ccc(CN(C)C(=O)C(c2ccccc2F)N(C)C)nc1 (stereo not drawn) — lower, -7.7%
- Cc1nc2c(c(N3CCC(O)(Cn4ccnc4)CC3)n1)CCNCC2 — higher, -1.99%
- Cc1nnsc1CNC(=O)c1ccc2c(c1)nc(N1CCOCC1)n2C — lower, -12.9%
- CSCC(=O)N1CCc2[nH]nc(-c3ccc4c(c3)OCO4)c2C1 — higher, 0.0699%
- COCc1noc(Cn2ccc3ccccc3c2=O)n1 — lower, -5.61%
- Cc1cccc(C(=O)N2CCCCC2c2ccc(CN(C)C)cc2)c1 (stereo not drawn) — lower, -8.71%
- O=C(NC1CCCC1)N1C[C@H]2CN(c3ccncc3)C[C@@]2(C(=O)O)C1 — higher, 14.8%
- O=C(NCc1cccc(F)c1F)c1cc(CN2CCCC(O)C2)on1 (stereo not drawn) — higher, 4.85%
- COCCN1CCCC2(CCN(c3cccc(C(F)(F)F)n3)C2)C1=O (stereo not drawn) — lower, -9.08%
- Cc1nc2c(c(=O)[nH]1)CN(C(=O)CC[C@@H]1CCCN3CCCC[C@H]13)C2 — higher, 24.5%
- COC1CCN(S(=O)(=O)N2C[C@H](c3ccccc3)[C@@H](N)C2)CC1 — higher, -2.79%
- COc1cc(C(=O)NCC2CCCN(Cc3ccco3)C2)ccn1 (stereo not drawn) — higher, 16.1%
- Cc1nn(C)c2ncnc(N3CCC(O)(CN4CCCC4)CC3)c12 — lower, -6.34%
- CC[S+]([O-])CCc1nc(CC(C)C)nn1-c1ccc2c(c1)OCCO2 (stereo not drawn) — higher, 5.5%
- COc1ccccc1N1CCN(C(=O)CSC(C)C)C(C)C1 (stereo not drawn) — higher, -3.04%
- Cc1noc(C)c1CCCNC(=O)C1CCN(C(C)C)CC1 — lower, -7.17%
- Cc1nc2ncccn2c1C(=O)N1CCc2[nH]cnc2C1 — higher, -1.79%
- Cn1cc(CN2CCC(Cn3cc(-c4ccccc4)nn3)CC2)cn1 — higher, -4.28%
- O=S(=O)(c1cccnc1)N1CCCCC1CCN1CCOCC1 (stereo not drawn) — higher, 23.1%
- Cn1ncc2c1NC(=O)CC2c1cc2c(cc1Cl)OCO2 (stereo not drawn) — higher, 17.7%
- Cc1nc(CN2CCC3(CCCO3)CCC2=O)no1 (stereo not drawn) — higher, -3.41%
- CN(CCc1cn[nH]c1)Cc1nc(Cc2cccc(C(F)(F)F)c2)no1 — higher, 3.03%
- Cc1ccc(Oc2ncccc2CNC2CCOCC2)cn1 — lower, -7.51%
- C[C@@H]1CN(c2ccc(Cl)cn2)C[C@@]1(O)C1CC1 — higher, -3.66%
- Cc1n[nH]c(C)c1CCC(=O)NCC1CCOc2ccccc2C1 (stereo not drawn) — higher, 12.2%
- O=C(NCC1COCCO1)c1csc(Cc2ccccc2)n1 (stereo not drawn) — lower, -4.7%
- Cn1ncc2c(NC3CCCN(C(=O)C4CC4)C3)nc(C(C)(C)C)nc21 (stereo not drawn) — higher, 2.96%
- Cc1ccc(C(=O)N(Cc2cccnc2)C[C@@H]2CCC(=O)N2)s1 — higher, 28%
- CO[C@H]1[C@@H]2CC[C@H]1CN(c1nc(C)nc3sccc13)C2 — higher, 6.45%
- COc1cccc2c1OCC(C(=O)N1Cc3ccccc3C1)C2 (stereo not drawn) — higher, -1.1%
- CCCc1cc(CN(C)C2CSCCSC2)n[nH]1 — lower, -6.5%
- CN(C)C(=O)CCN1CC(c2ccccc2)(c2ccccc2)CCC1=O — higher, 4.06%
- COCc1noc(-c2ccc(N(C)Cc3nccs3)nc2)n1 — lower, -6.18%
- O=C1CC2(CCN(C(=O)c3cccc(Cl)c3)CC2)CN1 — lower, -7.17%
- CCC(=O)N1CCN(S(=O)(=O)c2cccc(F)c2)[C@H]2CS(=O)(=O)C[C@H]21 — lower, -13.7%
- Cc1cccc(C2CCCN(C(=O)CN3CCOC3=O)C2)c1 (stereo not drawn) — lower, -17.6%
- CNc1ccnc(N(C)Cc2cc(-c3cccs3)n[nH]2)n1 — higher, 32.5%
- CC1=CC[C@@H]2CN(C(=O)c3ccc(-c4cc[nH]n4)cc3)C[C@@H]2C1 — higher, 0.519%
- CCCn1ccnc1CN1CC[C@@H](NC(=O)c2cccnc2)[C@H](O)C1 — lower, -16.3%
- COc1ccc(C(O)C(=O)N2CCC(c3nccn3C(C)C)CC2)cc1 (stereo not drawn) — higher, 28.1%
- CCN(Cc1ccccc1)C(=O)CCN1CC(O)C1 — lower, -16.3%
- CNCc1cn(CC2CCN(Cc3cccs3)CC2)nn1 — higher, 22.5%
- CN1CCC(N(C)CCC(=O)N2CCC(OCc3ccccc3)CC2)C1 (stereo not drawn) — higher, 29.2%
- CCOCC(=O)N1CCC(c2nc(-c3cccnn3)no2)CC1 — lower, -11.6%
- Cc1nc(CN(C)CC2CCCN(CCc3ccc(Cl)cc3)C2)no1 (stereo not drawn) — higher, 0.0181%
- CC(C)n1cc(CN(C)C[C@@H]2CCCN3CCCC[C@H]23)cn1 — lower, -6.94%
- COCCN1C(=O)[C@H]2CC[C@@H]1CN(C(=O)COc1ccc(F)c(Cl)c1)C2 — lower, -9.65%
- CCCc1cc(NCc2nc(COC)no2)n2nccc2n1 — higher, -0.144%
- CCC(CO)N(Cc1ccsc1)Cc1cccc(O)c1 (stereo not drawn) — higher, -0.682%
- NC(=O)CCC1CCCN(Cc2cnc(N3CCCCC3)nc2)C1 (stereo not drawn) — higher, -3.37%
- CC(CO)Nc1ccc(-c2nc(Cc3ccc(F)cc3)no2)cn1 (stereo not drawn) — higher, -2.07%
- O=C(NCc1ccccc1F)C1=NOC2(CCNC2)C1 (stereo not drawn) — lower, -10.8%
- Cc1ccoc1C(=O)N1C[C@H](OCc2cccnc2)[C@H]2OCCC[C@H]21 — lower, -15.2%
- O=C(O)c1c(-c2cccnc2)ncc2c1CCN(CC1CCOC1)C2 (stereo not drawn) — higher, 16.6%
- O=C(c1ccccn1)N1CCC2(CC1)COC(COCC1CCCC1)C2 (stereo not drawn) — lower, -13.8%
- O=C(c1ncccn1)N1CCC2(CC1)COC(COc1ccccn1)C2 (stereo not drawn) — higher, 10.9%
- c1coc(CN2CCc3nnc(COc4cncnc4)n3CC2)c1 — lower, -13.1%
- COc1ccc(CN2CCOCC3(CCN(C4CCOCC4)C3)C2)cc1 (stereo not drawn) — lower, -5.87%
- Fc1cccc(CN2CCOCC3(CCN(C4CCOCC4)C3)C2)c1 (stereo not drawn) — lower, -7.34%
- Cc1cccc(CN2CCOCC3(CCN(C4CCOCC4)C3)C2)c1 (stereo not drawn) — higher, 9.31%
- c1coc(CN2C[C@@H]3CCCO[C@@H]3[C@H](N3CCCC3)C2)c1 — lower, -8.85%
- O=C1NC2(CCN(Cc3ccc(F)cc3)CC2)CC1c1ccncc1 (stereo not drawn) — lower, -8.27%
- CN(Cc1ccco1)[C@@H]1CN(Cc2ccsc2)C[C@@H]2CCCO[C@@H]21 — higher, 2.78%
- CC(=O)N1C[C@@H]2CN(Cc3cccnc3)CCO[C@@H]2C1 — lower, -11.3%
- O=C1NC2(CCN(Cc3cccnc3)CC2)CC1c1cccnc1 (stereo not drawn) — lower, -8.55%
- CN(Cc1ccco1)[C@@H]1CN(Cc2cccnc2)C[C@@H]2CCCO[C@@H]21 — lower, -5%
- c1cncc(CN2CCC3(COCCN(C4CCOCC4)C3)C2)c1 (stereo not drawn) — lower, -6.19%
- Cc1cccc(CN2CCOCC3(CCN(C4CCOCC4)C3)C2)n1 (stereo not drawn) — higher, 7.65%
